pIC50, pKd: −log10 of the molar value.
What was measured:
p53 Y220C = p53 Y220C (Homo sapiens, UniProt P04637, Y220C); assay: Luciferase Reporter Assay (Luc), p53 response element, NClH1299 cells with inducible p53 Y220C; format: cell-based; settings: luciferase reporter, NClH1299 inducible p53 Y220C, 6 hour; for Emax: 10 uM tool compound as positive control; for AC50: read-out: Luc P53 Y220C AC50
Summary of the method: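 Luminescence readout (One-Glo, 5 min shaking at RT, read at once) after 6 h compound exposure; cells pre-induced 24 h with 0.5 ug/mL doxycycline, 5,000/well.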

H1299 p53 R273H = assay: Cell Proliferation Assay (CellTiter-Glo, CTG), H1299 p53 R273H (NClH1299-inducible p53 R273H); format: cell-based; settings: Homo sapiens, NCI-H1299, 120 h, CellTiter-Glo, H1299 p53 R273H, 5 days
Summary of the method: (§1)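 Cells seeded at 250-500 per well and exposed to compound for 5 days. Viability read by CellTiter-Glo luminescence after 10 min at room temperature; IC50 calculated. H1299 lines carry Tet-One inducible p53 mutant constructs introduced by lentiviral transduction.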

H1299 p53 Y220C = assay: Cell Proliferation Assay (CellTiter-Glo, CTG), H1299 p53 Y220C (NClH1299-inducible p53 Y220C); format: cell-based; settings: Homo sapiens, NCI-H1299, 120 h, CellTiter-Glo, H1299 p53 Y220C, 5 days
Summary of the method: as §1

[1] = molecular target: T1, p53 Y220C mutant protein (amino acid residues 94-293) (Homo sapiens, UniProt P04637, Y220C); assay: Surface Plasmon Resonance (SPR) assay, Kd_kinetic; format: binding; settings: SPR, kinetic KD, p53 Y220C; read-out: SPR P53 Y220C KD kinetic
T1 construct: p53 Y220C mutant protein (amino acid residues 94-293)
Summary of the method: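 Binding measured by SPR on a Biacore 8K in running buffer of 50 mM Tris pH 7.5, 100 mM NaCl, 1 mM DTT, 0.01% Brij35, 0.05% Tween-20, 1% DMSO.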

NUGC3 p53 Y220C = assay: Cell Proliferation Assay (CellTiter-Glo, CTG), NUGC3 p53 Y220C; format: cell-based; settings: Homo sapiens, NUGC-3, 120 h, CellTiter-Glo, NUGC3 p53 Y220C, 5 days
Summary of the method: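 NClH1299 lines stably transduced with Tet-inducible p53 Y220C or R273H, plus NUGC3, were treated with compound for 5 days at 250-500 cells/well. IC50 derived from CellTiter-Glo luminescent signal after 10 min room-temperature incubation.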

[2] = molecular target: T1, p53 Y220C mutant protein (amino acid residues 94-293); assay: Thermal Shift Assay (TSA), dTM; format: binding; settings: thermal shift, 100 uM compound; read-out: TSA P53 Y220C dTM (100 uM)
Summary of the method: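 Recombinant p53 Y220C core (residues 94-293) at 5 μM was incubated with 10 μM or 100 μM compound for 3 hours at 20 °C in 20 mM HEPES pH7.4, 100 mM NaCl, 0.01% Pluronic F-127, 1% DMSO with 400-fold diluted Sypro Orange. Melting was followed from 30 °C to 50 °C at 0.03 °C/second, and TM came from a Boltzmann two-state fit.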

| Emax (p53 Y220C) [%] | AC50 (p53 Y220C) [nM] | pIC50 (H1299 p53 R273H) | pIC50 (H1299 p53 Y220C) | pKd [1] | ΔTm at 100 µM [2] [°C] | SMILES | pIC50 (NUGC3 p53 Y220C) |
| --- | --- | --- | --- | --- | --- | --- | --- |
| 70 to 80 | > 3000 | ≤ 5.00 | < 5.52 | 7.00 to 8.00 | ≥ 10 | CNC(=O)c1ccc(NCC#Cc2nc3c(N[C@@H]4CCN(C)C[C@@H]4F)cccn3c2CC(F)(F)F)c(C(F)(F)F)c1 [Example 54, 4-{[3-(8-{[(3S,4R)-3-fluoro-1-methylpiperidin-4-yl]amino}-3-(2,2,2-trifluoroethyl)imidazo[1,2-a]pyridin-2-yl)prop-2-yn-1-yl]amino}-N-methyl-3-(trifluoromethyl)benzamide] | < 5.52 |
| 80 to 90 | > 3000 | ≤ 5.00 | < 5.52 | 7.00 to 8.00 | ≥ 10 | CNC(=O)c1ccc(NCC#Cc2nc3c(N[C@@H]4CCN(C)C[C@@H]4F)cccn3c2CC(F)(F)F)c(C#N)c1 [Example 56, 3-cyano-4-{[3-(8-{[(3S,4R)-3-fluoro-1-methylpiperidin-4-yl]amino}-3-(2,2,2-trifluoroethyl)imidazo[1,2-a]pyridin-2-yl)prop-2-yn-1-yl]amino}-N-methylbenzamide] | < 5.52 |
| 70 to 80 | > 3000 | ≤ 5.00 | < 5.52 | 7.00 to 8.00 | ≥ 10 | CNC(=O)c1ccc(NCC#Cc2nc3c(N[C@@H]4CCN(C)C[C@@H]4F)cccn3c2CC(F)(F)F)c(C2CC2)c1 [Example 57, 3-cyclopropyl-4-{[3-(8-{[(3S,4R)-3-fluoro-1-methylpiperidin-4-yl]amino}-3-(2,2,2-trifluoroethyl)imidazo[1,2-a]pyridin-2-yl)prop-2-yn-1-yl]amino}-N-methylbenzamide] | < 5.52 |
| 70 to 80 | > 3000 | ≤ 5.00 | < 5.52 | > 8.00 | 5 to 10 | CCc1cc(C(=O)NC)ccc1NCC#Cc1nc2c(N[C@@H]3CCN(C)C[C@@H]3F)cccn2c1CC(F)(F)F [Example 58, 3-ethyl-4-{[3-(8-{[(3S,4R)-3-fluoro-1-methylpiperidin-4-yl]amino}-3-(2,2,2-trifluoroethyl)imidazo[1,2-a]pyridin-2-yl)prop-2-yn-1-yl]amino}-N-methylbenzamide] | < 5.52 |

The next lines start with the compound.

| SMILES | Emax (p53 Y220C) [%] | AC50 (p53 Y220C) [nM] | pIC50 (H1299 p53 R273H) | pIC50 (H1299 p53 Y220C) | pKd [1] | ΔTm at 100 µM [2] [°C] | pIC50 (NUGC3 p53 Y220C) |
| --- | --- | --- | --- | --- | --- | --- | --- |
| CNC(=O)c1ccc(NCC#Cc2nc3c(N[C@@H]4CCN(C)C[C@@H]4F)cccn3c2CC(F)(F)F)c(Cl)c1 [Example 55, 3-chloro-4-{[3-(8-{[(3S,4R)-3-fluoro-1-methylpiperidin-4-yl]amino}-3-(2,2,2-trifluoroethyl)imidazo[1,2-a]pyridin-2-yl)prop-2-yn-1-yl]amino}-N-methylbenzamide] | > 90 | 750 to 1500 | ≤ 5.00 | 5.82 to 6.12 | 7.00 to 8.00 | ≥ 10 | 5.82 to 6.12 |
| CCOc1cc(C(=O)NC)ccc1NCC#Cc1nc2c(N[C@@H]3CCN(C)C[C@@H]3F)cccn2c1CC(F)(F)F [Example 59, 3-ethoxy-4-{[3-(8-{[(3S,4R)-3-fluoro-1-methylpiperidin-4-yl]amino}-3-(2,2,2-trifluoroethyl)imidazo[1,2-a]pyridin-2-yl)prop-2-yn-1-yl]amino}-N-methylbenzamide] | 70 to 80 | 1500 to 3000 | ≤ 5.00 | 5.82 to 6.12 | > 8.00 | 5 to 10 | 5.82 to 6.12 |
| CNC(=O)c1ccc(NCC#Cc2nc3c(N[C@@H]4CCN(C)C[C@@H]4F)cccn3c2CC(F)(F)F)c(OC(F)F)c1 [Example 60, 3-(difluoromethoxy)-4-{[3-(8-{[(3S,4R)-3-fluoro-1-methylpiperidin-4-yl]amino}-3-(2,2,2-trifluoroethyl)imidazo[1,2-a]pyridin-2-yl)prop-2-yn-1-yl]amino}-N-methylbenzamide] | 70 to 80 | > 3000 | ≤ 5.00 | 5.52 to 5.82 | > 8.00 | ≥ 10 | 5.52 to 5.82 |
